Results on three molecules are retold here after patent publication US6933310B1, “Therapeutic agent for amyotrophic lateral sclerosis (ALS)” (Mitsubishi Pharma Corporation, priority 2000, dated 2005).

What is called LD50 is the dose at which mortality reaches 50%.

One series relates to ALS patients. The conditions noted are these: administered intraspinally to ALS patients; cited from earlier work.
Another series deals with ALS. To be noted: some reported test results; cited from earlier work.
The subject of series [1] is Wobbler mice. The experiment in a line: Number of spinal motor neurons in Wobbler mice. The class given is in vivo, mouse. To be noted: 10 mg/kg orally, 4 weeks, cervical spinal cord C5-6, vs control group (FIG. 4). From the text: (§1) Wobbler mice (Ikeda K. et al., Ann. Neurol. vol. 34, p304, 1993; Mitsumoto H. et al., Ann. Neurol. vol. 36, pp142 to 148, 1994; Mitsumoto H. et al., Science, vol. 265, pp1107 to 1110, 1994) were used.
(§2) At 3 to 4 weeks old, with the development of the symptom of body tremors, Wobbler mice were diagnosed with the onset of the disease. Immediately after being diagnosed to have the beginnings of the disease, the mice were orally administered with the drug of the present invention (3-methyl-1-phenyl-2-pirazoline-5-on; also referred to as MCI-186 in the drawings) (10 mg/kg), and the mice of a control group were administered with vehicles, by a blind test continually for 4 weeks. The administration of the drug was completed at 7 to 8 weeks old after birth, and the test was conducted with n=10 for each test group.
Wobbler mice (n=10 per group) that had been used for morphological study on the right brachial biceps muscles were perfused via an intracardiac catheter with phosphate buffered saline, and then 4% paraformaldehyde/1% glutaraldehyde/0.1 M sodium phosphate buffer (pH 7.4). […]
(§3) The scale of the degree of forelimb deformity was analyzed by the non-parametric Wilcoxon signed rank-sum test. Muscle strength, weight of biceps muscle, mean diameter of muscle fibers and number of motor neurons were statistically analyzed by unpaired Student's t-test. […]

The conditions of series [2]: National Cancer Institute Report, 89, 1978; cited from earlier work.
Series [3] concerns Wobbler mice. The experiment in a line: Forelimb deformity grading in Wobbler mice. It is filed as in vivo, mouse. To be noted: 10 mg/kg orally, 4 weeks, vs control group (FIG. 1).
Excerpt: as §1, §2
The degree of forelimb deformity was classified into four grades: 1 (paw atrophy), 2 (curled digits), 3 (curled wrists), and 4 (forelimb flexion to chest), and then evaluated. The progress from 1 to 4 means that the symptom became worse.
The scale of the degree of forelimb deformity was analyzed by the non-parametric Wilcoxon signed rank-sum test. Muscle strength, weight of biceps muscle, mean diameter of muscle fibers and number of motor neurons were statistically analyzed by unpaired Student's t-test. In all tests, the significance level of 5% was set for both sides.

In the next series the test system is mouse. To be noted: intraabdominal administration; cited from earlier work.
For series [4], the system named is Wobbler mice. The experiment in a line: Forelimb grip strength in Wobbler mice. The class given is in vivo, mouse. To be noted: 10 mg/kg orally, 4 weeks, vs control group (FIG. 2).
Excerpt: as §1
At 3 to 4 weeks old, with the development of the symptom of body tremors, Wobbler mice were diagnosed with the onset of the disease. Immediately after being diagnosed to have the beginnings of the disease, the mice were orally administered with the drug of the present invention (3-methyl-1-phenyl-2-pirazoline-5-on; also referred to as MCI-186 in the drawings) (10 mg/kg), and the mice of a control group were administered with vehicles, by a blind test continually for 4 weeks. […]
The grip strength of the forelimb was measured (Ikeda et al., Neuromusc. Disord., 5, (1995), 383–390; K. Ikeda et al., J. Neurol. Sci., 160, (1998) 9–15; K. Ikeda et al., Neurosci. Lett., 250 (1998) 9–12; K. Ikeda et al., Muscle Nerve, 18 (1995) 1344–1347; K. Ikeda et al., Neurol. Res., 17 (1995) 445–448; K. Ikeda et al., Ann. Neurol., 37 (1995) 505–511; K. Ikeda et al., Brain Res., 726 (1996) 91–97; H. Mitsumoto et al., Ann. Neurol., 36 (1994) 142–148; and H. Mitsumoto et al., Science, 265 (1994) 1107–1110). […]
The scale of the degree of forelimb deformity was analyzed by the non-parametric Wilcoxon signed rank-sum test. […]

For series [5], the system named is Wobbler mice. The series is described as follows: Weight and morphology of right brachial biceps muscle in Wobbler mice. It is filed as in vivo, mouse. The conditions noted are these: 10 mg/kg orally, 4 weeks.
Excerpt: as §1, §2
After the end of drug administration, Wobbler mice (n=10 per group) were ether anesthetized, and then the right brachial biceps muscles were excised under dissecting microscope. The excised biceps muscles were correctly measured, and then frozen. […]
as §3

In the case of “human recombinant Cu/Zn SOD: human recombinant Cu/Zn superoxide dismutase administered intraspinally to ALS patients”, in the series with ALS patients, the “therapeutic effect in ALS patients” value is listed as “effective therapeutic effects were not obtained”.

Turning to `Nc1nc2ccc(OC(F)(F)F)cc2s1` [riluzole], the “effectiveness against ALS” value with ALS is recorded as “effectiveness against ALS could not be confirmed”.

Turning to `CC1=NN(c2ccccc2)C(=O)C1` [3-methyl-1-phenyl-2-pirazoline-5-on], the “number of spinal motor neurons” value with Wobbler mice [1] was “increased”. Moreover, the carcinogenicity result in series [2] is “noncarcinogenicity”. For the same molecule, the “degree of forelimb deformity (Grades 1 to 4)” value in the series with Wobbler mice [3] is given as “the progress of muscle deformity was delayed”. Further, the LD50 in the series on mouse is recorded as 2012 mg/kg. Moreover, the “muscle strength of the forelimb (grip strength)” value with Wobbler mice [4] was “the decrease in muscle strength was delayed”. For the same molecule, in the series on Wobbler mice [5] (right brachial biceps, P<0.01 vs control 16.8±0.6 μm), the “mean diameter of muscle fibers (mean±SEM)” value is recorded as 20.3±0.8 μm. Besides, the “weight of the right brachial biceps muscle” value with Wobbler mice [5] (vs control group (FIG. 3)) is listed as “significantly increased”.
